The values that follow come from ChEMBL document CHEMBL1152149 (Bioorg Med Chem Lett, 2008).

Counter-ions that a name gives are not always drawn. Bounds are passed on as bounds.

The test system of the experiment is Influenza A virus. Nature of the experiment: microbe, parasite or virus in culture. The following applies: MDCK.

Consider `CC1(N)C2CC3CC(C2)CC1C3` (stereo unspecified), for which the EC50 (in general, the concentration at which the effect is half-maximal) is < 2000 nM. Next, `CCCC1(N)C2CC3CC(C2)CC1C3` (stereo unspecified): < 1700 nM; `C1CNC2(C1)C1CC3CC(C1)CC2C3` (stereo unspecified): 1800 nM. Next, `CC1(O)C2CC3CC(C2)CC1C3` (stereo unspecified): 10800 nM; `CCC1(N)C2CC3CC(C2)CC1C3` (stereo unspecified): < 1900 nM.

In the case of `NC12CC3CC(CC(C3)C1)C2` [AMANTADINE HYDROCHLORIDE], the EC50 is < 900 nM.
